# Values joined by “and” are separate entries in the source; they are usually repeats but may differ in a detail not shown here. Equal values may be shown once.
# Key:
# [1] = Plasma kinetics of ivermectin after subcutaneous injection of Ivomec to dogs; type: in vivo, dog; conditions: for Plasma concentrations of ivermectin / Plasma concentrations of ivermectin, Mean: Ivomec subcutaneous 400 μg.kg^−1, dogs
# Experimental: This study was conducted in order to assess the pharmacokinetics of ivemectin in the dog after subcutaneous administration of Ivomec® at a dose of 400 μg.kg^−1 of ivermectin which is known to be effective on gastrointestinal nematodes and to have a route of reference for further development.
# Five male Beagle dogs were injected a subcutaneous dose of 400 μg.kg^−1 of ivermectin. Blood samples were collected at intervals up to 56 days post-dosing. The determination of ivermectin in dog plasma was carried out by HPLC, using fluorescence detection after derivatization. The limit of quantification was 100 pg.ml^−1.
# [2] = ivermectin, cited from earlier work
# [3] = Plasma kinetics of ivermectin after oral administration of Cardomec to dogs; type: in vivo, dog
# Experimental: Five male Beagle dogs received a dose of approximately 6 μg.kg^−1 of ivermectin, i.e., one 68 μg Cardomec® tablet per dog. The animals were fasted prior to administration and up to 6 hours after treatment to prevent a possible interaction with food.
# Blood samples were collected at intervals up to 28 days post-dosing. The determination of ivermectin in dog plasma was carried out by HPLC using fluorescence detection after derivatization. The limit of quantification was 100 pg.ml^−1.
# [4] = Ivomec subcutaneous, dose 400 pg.kg^−1 [sic], individual dogs
# [5] = Cardomec oral 6 μg.kg^−1, 5 fasted dogs, mean
# [6] = Cardomec oral 6 μg.kg^−1, 5 fasted dogs, range over dogs
# [7] = Cardomec oral 6 μg.kg^−1, fasted dogs, individual dogs
substance,measurement,setting,value
ivermectin,Plasma concentrations of ivermectin,"[1]; D 28, individual dogs",BLQ (The limit of quantification was 100 pg.ml^−1) (2×) and 190 pg.ml^−1 and 108 pg.ml^−1 and 119 pg.ml^−1
same,"Plasma concentrations of ivermectin, Mean","[1]; D 28, mean of 5 dogs (BLQ taken as 0)",BLQ (The limit of quantification was 100 pg.ml^−1)
same,Plasma concentrations of ivermectin,"[1]; D 35, individual dogs",BLQ (The limit of quantification was 100 pg.ml^−1)
same,"Plasma concentrations of ivermectin, Mean","[1]; D 35, mean of 5 dogs",BLQ (The limit of quantification was 100 pg.ml^−1)
same,tmax,"[1]; Ivomec subcutaneous, 400 μg.kg^−1, individual dogs",2 d (2×) and 4 d (2×) and 3 d
same,AUC(0-t),[1]; [4],161141 pg·days/mL and 224572 pg·days/mL and 291636 pg·days/mL and 225830 pg·days/mL and 231319 pg·days/mL
same,AUC(0-∞),[1]; [4],161690 pg·days/mL and 225452 pg·days/mL and 294236 pg·days/mL and 226283 pg·days/mL and 231824 pg·days/mL
same,Cmax,[1]; [4],26.256 ng/mL and 24.875 ng/mL and 41.257 ng/mL and 27.2 ng/mL and 25.089 ng/mL
same,t½,[1]; [4],56.4 h and 77 h and 69.1 h and 69.8 h and 70.6 h
same,"tmax, literature data",[2]; food state of dogs not specified,2 to 4 h
same,"AUC, mean literature values",[2],107.318 ng·h/mL
same,"Cmax, mean literature values",[2],more than 2000 pg. ml^−1
same,"AUC(0-t), Mean",[3]; [5],1534 pg·days/mL
same,"AUC(0-∞), Mean",[3]; [5],1859 pg·days/mL
same,"AUC, mean",[3]; [5],44.604 ng·h/mL
same,"Cmax, Mean",[3]; [5],1.362 ng/mL
same,"AUC(0-t), Range",[3]; [6],[187-3246] pg.d.ml^−1
same,"AUC(0-∞), Range",[3]; [6],[382-3789] pg.d.ml^−1
same,"Plasma concentrations of ivermectin, Mean","[3]; Cardomec oral 6 μg.kg^−1, fasted dogs, 0 h, mean of 5 dogs",BLQ (Below the Limit of Quantification (100 pg.ml^−1))
same,"Plasma concentrations of ivermectin, Mean","[3]; Cardomec oral 6 μg.kg^−1, fasted dogs, 0.75 h, mean of 5 dogs (BLQ taken as 0)",0.119 ng/mL
same,"Plasma concentrations of ivermectin, Mean","[3]; Cardomec oral 6 μg.kg^−1, fasted dogs, 1.5 h, mean of 5 dogs (BLQ taken as 0)",0.536 ng/mL
same,Plasma concentrations of ivermectin,"[3]; Cardomec oral 6 μg.kg^−1, fasted dogs, 2 h, individual dogs",1132 pg.ml^−1 and 674 pg.ml^−1 and BLQ (Below the Limit of Quantification (100 pg.ml^−1)) and 1817 pg.ml^−1 and 264 pg.ml^−1
same,"Plasma concentrations of ivermectin, Mean","[3]; Cardomec oral 6 μg.kg^−1, fasted dogs, 2 h, mean of 5 dogs (BLQ taken as 0)",0.777 ng/mL
same,"Plasma concentrations of ivermectin, Mean","[3]; Cardomec oral 6 μg.kg^−1, fasted dogs, 3 h, mean of 5 dogs",1.199 ng/mL
same,"Plasma concentrations of ivermectin, Mean","[3]; Cardomec oral 6 μg.kg^−1, fasted dogs, 4 h, mean of 5 dogs",1.098 ng/mL
same,"Plasma concentrations of ivermectin, Mean","[3]; Cardomec oral 6 μg.kg^−1, fasted dogs, 6 h, mean of 5 dogs",0.956 ng/mL
same,"Plasma concentrations of ivermectin, Mean","[3]; Cardomec oral 6 μg.kg^−1, fasted dogs, 8 h, mean of 5 dogs",0.769 ng/mL
same,"Plasma concentrations of ivermectin, Mean","[3]; Cardomec oral 6 μg.kg^−1, fasted dogs, 10 h, mean of 5 dogs",0.798 ng/mL
same,"Plasma concentrations of ivermectin, Mean","[3]; Cardomec oral 6 μg.kg^−1, fasted dogs, 12 h, mean of 5 dogs",0.783 ng/mL
same,"Plasma concentrations of ivermectin, Mean","[3]; Cardomec oral 6 μg.kg^−1, fasted dogs, 24 h, mean of 5 dogs",0.525 ng/mL
same,"Plasma concentrations of ivermectin, Mean","[3]; Cardomec oral 6 μg.kg^−1, fasted dogs, 32 h, mean of 5 dogs (BLQ taken as 0)",0.338 ng/mL
same,"Plasma concentrations of ivermectin, Mean","[3]; Cardomec oral 6 μg.kg^−1, fasted dogs, D 2, mean of 5 dogs (ND included as BLQ = 0)",0.268 ng/mL
same,"Plasma concentrations of ivermectin, Mean","[3]; Cardomec oral 6 μg.kg^−1, fasted dogs, D 3, mean of 5 dogs (ND included as BLQ = 0)",0.173 ng/mL
same,"Plasma concentrations of ivermectin, Mean","[3]; Cardomec oral 6 μg.kg^−1, fasted dogs, D 4, mean of 5 dogs (ND, BLQ taken as 0)",0.108 ng/mL
same,"Plasma concentrations of ivermectin, Mean","[3]; Cardomec oral 6 μg.kg^−1, fasted dogs, D 5, mean of 5 dogs, one value above the limit of quantification",BLQ* (Below the Limit of Quantification (100 pg.ml^−1))
same,"Plasma concentrations of ivermectin, Mean","[3]; Cardomec oral 6 μg.kg^−1, fasted dogs, D 7, mean of 5 dogs, one value above the limit of quantification",BLQ* (Below the Limit of Quantification (100 pg.ml^−1))
same,"Plasma concentrations of ivermectin, Mean","[3]; Cardomec oral 6 μg.kg^−1, fasted dogs, D 9, mean of 5 dogs",BLQ (Below the Limit of Quantification (100 pg.ml^−1))
same,"Plasma concentrations of ivermectin, Mean","[3]; Cardomec oral 6 μg.kg^−1, fasted dogs, D 14, mean of 5 dogs",BLQ (Below the Limit of Quantification (100 pg.ml^−1))
same,"Plasma concentrations of ivermectin, Mean","[3]; Cardomec oral 6 μg.kg^−1, fasted dogs, D 21, mean of 5 dogs",BLQ (Below the Limit of Quantification (100 pg.ml^−1))
same,AUC(0-t),[3]; [7],3246 pg·days/mL and 1545 pg·days/mL and 743 pg·days/mL and 1949 pg·days/mL and 187 pg·days/mL
same,AUC(0-∞),[3]; [7],3789 pg·days/mL and 1813 pg·days/mL and 1027 pg·days/mL and 2282 pg·days/mL and 382 pg·days/mL
same,Cmax,[3]; [7],2.964 ng/mL and 0.911 ng/mL and 0.557 ng/mL and 1.955 ng/mL and 0.422 ng/mL
same,tmax,[3]; [7],3 h (2×) and 12 h (2×) and 4 h
same,t½,[3]; [7],64.5 h and 33.5 h and 37.5 h and 39.2 h and 26.0 h and 64.6 h and 33.6 h and 37.4 h and 39.1 h and 25.9 h

# Reference: patent publication US6962713B2, “Spot-on formulations for combating parasites” (Merial, priority 1919, dated 2005)
